Test results reported in US5104897A, “Medical uses of halogen substituted diphenylsulfides” (Burroughs Wellcome Co., priority 1989, dated 1992).

Tests used:
Assay type in all cases: biochemical
[1] = system: Norepinephrine uptake (crude synaptosomal preparation); test: Uptake of 3H-norepinephrine in crude synaptosomal preparations of rat hypothalamus and striatum; conditions: [3H]1-norepinephrine, rat hypothalamus/striatum synaptosomes, 5 min preincubation, 3 min incubation, 37° C. minus 0° C. uptake; read-out: IC50 (Molar) for Inhibition of Biogenic Amine Uptake, Norepinephrine
Protocol: (§1) Activity Studies Uptake of ^3 H-Biogenic Amines in Crude Synaptosomal Preparations of Rat Hypothalamus and Striatum.
(§2) A 0.5 mL aliquot of a crude synaptosomal preparation prepared according to the technique of Ferris et al., J. Pharm. Exp. Ther., 181, 407 (1972) and Patrick et al., J. Pharm. Exp. Ther., 241, 152 (1987) was incubated in a standard incubation medium containing 10 μM iproniazid, 1 μM ascorbate and […] of either [^3 H]dopamine, [^3 H]1-norepinephrine or [^3 H]serotonin. Final volumes were 3 mL.
(§3) All incubations were conducted for 3 minutes under an atmosphere of 95% O2 -5% CO2. The uptake at 0° C. and 37° C. was determined in each experiment and the difference between the two determinations represented the accumulation of [^3 H]amine by the temperature-dependent uptake process. Test compounds were dissolved in the standard incubation medium and preincubated with the crude synaptosomal preparation for 5 mintes, before the addition of the labeled substrate.
(§4) Reactions were stopped by the addition of 2 mL of ice-cold 0.32M sucrose containing 25 mM Tris buffer, pH 7.4, and rapid cooling in an ice-bath. Samples were centrifuged at 49,600×g for 10 minutes. The resulting pellet was washed with 5 mL of 0.9% saline and again centrifuged. […] A 1 mL aliquot of the supernatant was taken for determination of radioactivity.

[2] = system: Dopamine uptake (crude synaptosomal preparation); test: Uptake of 3H-dopamine in crude synaptosomal preparations of rat hypothalamus and striatum; conditions: at 10^-5 (Molar by title), rat synaptosomes, mean of triplicate assay with S.E.M. < ±5%
Protocol: as §1, §2, §3, §4

[3] = system: Serotonin uptake (crude synaptosomal preparation); test: Uptake of 3H-serotonin in crude synaptosomal preparations of rat hypothalamus and striatum; conditions: rat hypothalamus/striatum synaptosomes, 5 min preincubation, 3 min incubation, 37° C. minus 0° C. uptake, read-out: IC50 (Molar) for Inhibition of Biogenic Amine Uptake, Serotonin
Protocol: as §1, §2, §3, §4

Molecule | IC50 [1] | Percent inhibition of Dopamine uptake [2] | IC50 [3]
5-Chloro-2-((2-((methylamino)methyl)phenyl)thio)benzyl Alcohol [Example 5] | 110 nM | 38% | 21 nM
CN(C)Cc1ccccc1Sc1ccc(Cl)cc1CO.Cl [Example 2, 5-chloro-2-((2-((dimethylamino)methyl)phenyl)thio)benzyl alcohol hydrochloride] | 55 nM | 15% | 2.1 nM
